Values belong to the compound of their own block, whether it stands above or below them.
Experiments:
[1] = system: L1210; assay: Concentration required to inhibit the growth of L1210 cells.; format: functional, cell-based; conditions: Mus musculus
[2] = system: Mus musculus; assay: Incidence of disease (mouse type II collagen) was scored as the percentage of animals within each experimental group that exhibited joint or limb inflammation on day 23 at intraperitoneal dose 6 mg/kg; format: functional
[3] = system: Mus musculus; assay: Incidence of disease (mouse type II collagen) was scored as the percentage of animals within each experimental group that exhibited joint or limb inflammation on day 23 at intraperitoneal dose 18 mg/kg; format: functional
[4] = system: Mus musculus; assay: Tested for antiinflammatory activity on mouse type II collagen arthritis as Paw swelling* of all animals in each group on day 23 at intraperitoneal dose of 6 mg/kg; format: functional
[5] = system: Mus musculus; assay: Tested for antiinflammatory activity on mouse type II collagen arthritis as Paw swelling* of all animals in each group on day 30 at intraperitoneal dose of 6 mg/kg; format: functional
[6] = system: Mus musculus; assay: Incidence of disease (mouse type II collagen) was scored as the percentage of animals within each experimental group that exhibited joint or limb inflammation on day 23 at intraperitoneal dose 12 mg/kg; format: functional
[7] = system: Mus musculus; assay: Incidence of disease (mouse type II collagen) was scored as the percentage of animals within each experimental group that exhibited joint or limb inflammation on day 37 at intraperitoneal of dose 6 mg/kg; format: functional
[8] = system: Mus musculus; assay: Incidence of disease (mouse type II collagen) was scored as the percentage of animals within each experimental group that exhibited joint or limb inflammation on day 44 at intraperitoneal of dose 6 mg/kg; format: functional
[9] = system: Mus musculus; assay: Incidence of disease (mouse type II collagen) was scored as the percentage of animals within each experimental group that exhibited joint or limb inflammation on day 30 at intraperitoneal of dose 6 mg/kg; format: functional
[10] = system: Mus musculus; assay: Incidence of disease (mouse type II collagen) was scored as the percentage of animals within each experimental group that exhibited joint or limb inflammation on day 37 at intraperitoneal of dose 12 mg/kg; format: functional
[11] = system: Mus musculus; assay: Incidence of disease (mouse type II collagen) was scored as the percentage of animals within each experimental group that exhibited joint or limb inflammation on day 44 at intraperitoneal of dose 18 mg/kg; format: functional
[12] = system: Mus musculus; assay: Tested for antiinflammatory activity on mouse type II collagen arthritis as Paw swelling* of all animals in each group on day 44 at intraperitoneal dose of 18 mg/kg; format: functional
[13] = system: Mus musculus; assay: Tested for antiinflammatory activity on mouse type II collagen arthritis as Paw swelling* of all animals in each group on day 37 at intraperitoneal dose of 6 mg/kg; format: functional
[14] = system: Mus musculus; assay: Tested for antiinflammatory activity on mouse type II collagen arthritis as Paw swelling* of all animals in each group on day 30 at intraperitoneal dose of 18 mg/kg; format: functional
[15] = system: Mus musculus; assay: Tested for antiinflammatory activity on mouse type II collagen arthritis as Paw swelling* of all animals in each group on day 37 at intraperitoneal dose of 12 mg/kg; format: functional
[16] = system: Mus musculus; assay: Tested for antiinflammatory activity on mouse type II collagen arthritis as Paw swelling* of all animals in each group on day 37 at intraperitoneal dose of 18 mg/kg; format: functional
[17] = system: Mus musculus; assay: Tested for antiinflammatory activity on mouse type II collagen arthritis as Paw swelling* of all animals in each group on day 44 at intraperitoneal dose of 6 mg/kg; format: functional
[18] = system: Mus musculus; assay: Incidence of disease (mouse type II collagen) was scored as the percentage of animals within each experimental group that exhibited joint or limb inflammation on day 30 at intraperitoneal of dose 12 mg/kg; format: functional
[19] = system: Mus musculus; assay: Tested for antiinflammatory activity on mouse type II collagen arthritis as Paw swelling* of all animals in each group on day 44 at intraperitoneal dose of 12 mg/kg; format: functional
[20] = system: Mus musculus; assay: Tested for antiinflammatory activity on mouse type II collagen arthritis as Paw swelling* of all animals in each group on day 23 at intraperitoneal dose of 12 mg/kg; format: functional
[21] = system: Mus musculus; assay: Incidence of disease (mouse type II collagen) was scored as the percentage of animals within each experimental group that exhibited joint or limb inflammation on day 30 at intraperitoneal of dose 18 mg/kg; format: functional
[22] = system: Mus musculus; assay: Incidence of disease (mouse type II collagen) was scored as the percentage of animals within each experimental group that exhibited joint or limb inflammation on day 37 at intraperitoneal of dose 18 mg/kg; format: functional
[23] = system: Mus musculus; assay: Tested for antiinflammatory activity on mouse type II collagen arthritis as Paw swelling* of all animals in each group on day 30 at intraperitoneal dose of 12 mg/kg; format: functional
[24] = system: Mus musculus; assay: Incidence of disease (mouse type II collagen) was scored as the percentage of animals within each experimental group that exhibited joint or limb inflammation on day 44 at intraperitoneal of dose 12 mg/kg; format: functional
[25] = system: Mus musculus; assay: Tested for antiinflammatory activity on mouse type II collagen arthritis as Paw swelling* of all animals in each group on day 23 at intraperitoneal dose of 18 mg/kg; format: functional
[26] = Concentration required to inhibit the growth of chang liver cells.; format: functional; conditions: Homo sapiens
[27] = system: Mus musculus; assay: Incidence of disease (mouse type II collagen) was scored as the percentage of animals within each experimental group that exhibited joint or limb inflammation on day 30 at intraperitoneal dose of 10 mg/kg; format: functional
[28] = system: Mus musculus; assay: Tested for antiinflammatory activity on mouse type II collagen arthritis as Paw swelling of all animals in each group on day 37 at intraperitoneal dose of 5 mg/kg; format: functional
[29] = system: Mus musculus; assay: Tested for antiinflammatory activity on mouse type II collagen arthritis as Paw swelling of all animals in each group on day 23 at intraperitoneal dose of 10 mg/kg; format: functional
[30] = system: Mus musculus; assay: Incidence of disease (mouse type II collagen) was scored as the percentage of animals within each experimental group that exhibited joint or limb inflammation on day 44 at intraperitoneal dose of 5 mg/kg; format: functional
[31] = system: Mus musculus; assay: Incidence of disease (mouse type II collagen) was scored as the percentage of animals within each experimental group that exhibited joint or limb inflammation on day 30 at intraperitoneal dose of 5 mg/kg; format: functional
[32] = system: Mus musculus; assay: Incidence of disease (mouse type II collagen) was scored as the percentage of animals within each experimental group that exhibited joint or limb inflammation on day 37 at intraperitoneal dose of 5 mg/kg; format: functional
[33] = system: Mus musculus; assay: Tested for antiinflammatory activity on mouse type II collagen arthritis as Paw swelling of all animals in each group on day 30 at intraperitoneal dose of 5 mg/kg; format: functional
[34] = system: Mus musculus; assay: Tested for antiinflammatory activity on mouse type II collagen arthritis as Paw swelling of all animals in each group on day 23 at intraperitoneal dose of 5 mg/kg; format: functional
[35] = system: Mus musculus; assay: Tested for antiinflammatory activity on mouse type II collagen arthritis as Paw swelling of all animals in each group on day 37 at intraperitoneal dose of 10 mg/kg; format: functional
[36] = system: Mus musculus; assay: Incidence of disease (mouse type II collagen) was scored as the percentage of animals within each experimental group that exhibited joint or limb inflammation on day 37 at intraperitoneal dose of 10 mg/kg; format: functional
[37] = system: Mus musculus; assay: Tested for antiinflammatory activity on mouse type II collagen arthritis as Paw swelling of all animals in each group on day 44 at intraperitoneal dose of 10 mg/kg; format: functional
[38] = system: Mus musculus; assay: Tested for antiinflammatory activity on mouse type II collagen arthritis as Paw swelling of all animals in each group on day 30 at intraperitoneal dose of 10 mg/kg; format: functional
[39] = system: Mus musculus; assay: Incidence of disease (mouse type II collagen) was scored as the percentage of animals within each experimental group that exhibited joint or limb inflammation on day 23 at intraperitoneal dose of 10 mg/kg; format: functional
[40] = system: Mus musculus; assay: Incidence of disease (mouse type II collagen) was scored as the percentage of animals within each experimental group that exhibited joint or limb inflammation on day 23 at intraperitoneal dose of 5 mg/kg; format: functional
[41] = system: Mus musculus; assay: Incidence of disease (mouse type II collagen) was scored as the percentage of animals within each experimental group that exhibited joint or limb inflammation on day 44 at intraperitoneal dose of 10 mg/kg; format: functional
[42] = system: Mus musculus; assay: Tested for antiinflammatory activity on mouse type II collagen arthritis as Paw swelling of all animals in each group on day 44 at intraperitoneal dose of 5 mg/kg; format: functional

- IC50 [1]: 13 nM
Compound: C#CCN(Cc1cnc2nc(N)nc(N)c2c1)c1ccc(C(=O)NC(CCC(=O)O)C(=O)O)cc1 (configuration not stated)
- Animals [2]: 0%
- Animals [3]: 0%
- Paw swelling [4]: 2.12 mm
- Paw swelling [5]: 2.32 mm
- Animals [6]: 0%
- Animals [7]: 88%
- Animals [8]: 100%
- Animals [9]: 38%
- Animals [10]: 50%
- Animals [11]: 38%
- Paw swelling [12]: 2.27 mm
- Paw swelling [13]: 2.46 mm
- Paw swelling [14]: 2.13 mm
- Paw swelling [15]: 2.3 mm
- Paw swelling [16]: 2.23 mm
- Paw swelling [17]: 2.65 mm
- Animals [18]: 0%
- Paw swelling [19]: 2.49 mm
- Paw swelling [20]: 2.17 mm
- Animals [21]: 0%
- Animals [22]: 38%
- Paw swelling [23]: 2.16 mm
- Animals [24]: 75%
- Paw swelling [25]: 2.16 mm
- IC50 [26]: 6.3 nM

Compound: C#CCC(Cc1cnc2nc(N)nc(N)c2c1C)c1ccc(C(=O)NC(CCC(=O)O)C(=O)O)cc1 (configuration not stated)
- Animals [27]: 57%
- Paw swelling [28]: 2.45 mm
- Paw swelling [29]: 2.19 mm
- Animals [30]: 88%
- Animals [31]: 12%
- Animals [32]: 62%
- Paw swelling [33]: 2.17 mm
- Paw swelling [34]: 2.18 mm
- Paw swelling [35]: 2.65 mm
- Animals [36]: 71%
- Paw swelling [37]: 2.7 mm
- Paw swelling [38]: 2.37 mm
- Animals [39]: 14%
- Animals [40]: 12%
- Animals [41]: 71%
- Paw swelling [42]: 2.64 mm

From ChEMBL document CHEMBL1129930, “Analogues of methotrexate in rheumatoid arthritis. 2. Effects of 5-deazaaminopterin, 5,10-dideazaaminopterin, and analogues on type II collagen-induced arthritis in mice” (J Med Chem, 1997)
